Where two headings read alike, the source gives them in different places.
Tests used:
[1] = test system: C. reinhardtii (Nit1-305,cw-15); experiment: Transformation of algal cells with plasmid DNA and CPP, selection on Zeocin plates; format: cell-based, Chlamydomonas reinhardtii
Procedure: Transformation experiments were conducted. […] Cell culture was grown in 900 ml of SGII+NH4NO3 medium, divided in 3 aliquots into 500 ml Erlenmeyer flasks each containing 300 ml of the culture. The culture was grown for two days until the cell growth reached mid-log phase and cell density reached to 1×10^6 cells ml^−1 (OD at 680 nm=0.6-0.8). Cells were collected at 3000 rpm for 10 minutes to obtain 9×10^8 cells in total. In all transformation experiments for Chlamydomonas reinhardtii, SGII+NH4NO3 medium was used in downstream experimental steps. […] Cells were washed after grown in SGII-NH4NO3 medium to remove NH4 traces. Cells were divided into 3 aliquots each of 3×10^8 cells. Two aliquots of the harvested cells were treated with cell wall degrading enzymes one with cellulase from Aspergillus niger (Sigma, Canada) and the other with lysozyme from chicken egg white (Sigma, Canada).
Lysozyme treatment: Lysozyme from chicken white egg was purchased (Sigma-Aldrich, Canada). Enzymatic assay protocol was modified from Sigma-Aldrich product information publication. For cell lysis/cell wall disruption, use a freshly prepared lysozyme solution (10 mg/ml) in sterilized 10 mM Tris-HCL, pH 8.0. Add 25 μl of a freshly prepared lysozyme to the required number (−5.0×10^7) of cells/transformation reaction, mix by vortexing for 3 seconds. Incubate the lysis mixture for 15 minutes at 37° C. […] Centrifuge the cells and discard the supernatant containing lysozyme. To stop the reaction, wash the cells twice with media and collect the cells at 3000 rpm for 10 minutes. Proceed to downstream applications and/or transformation experiment.
Cellulase treatment: Cellulase (EC 3.2.1.4) was purchased from Sigma-Aldrich, Canada. Enzymatic assay protocol was modified from Sigma-Aldrich product information publication. Just before use, prepare solution containing 8 units/ml (26.7 mg/ml) of cellulase in sterilized cold distilled water. Add 500 μl of a freshly prepared cellulase solution to the required number (−5.0×10^7) of cells, immediately mix by swirling. Incubate the lysis mixture for 15 minutes at 37° C. […] Centrifuge the cells and discard the supernatant containing lysozyme. To stop the reaction, wash the cells twice and collect the cells at 3000 rpm for 10 minutes. Proceed to downstream applications and/or transformation experiment.
The third aliquot was not treated with any enzyme.
After enzymatic treatments, the cells were washed twice with the medium to stop the reaction. Cells of each aliquot were re-suspended in fresh medium (cell concentration=3×10^8ml^−1) and used 300 μl of cell suspension (−5×10^7 number of cell) in each transformation reaction. Cells were transferred to 15 ml Falcon tube containing sterilized 300 mg glass beads of 0.5 mm size. Just prior to starting the next step, 1 μg plasmid DNA and one of the four ATT(s) tested were mixed. One of the four ATT-plasmid mixtures were added to the algal cells and beads suspended in media. The cells, ATT and DNA mixture and the beads were vortexed for 15 seconds. 10 ml of medium was added to the transformation reaction, and the tubes were incubated overnight with shaking at 100 rpm in incubator to allow cell recovery and expression of the gene. The cell suspensions were transferred to fresh tubes to remove beads and cells were spun by centrifugation for 5 minutes at 3000 rpm. The cells were re-suspended in 2 ml of 0.5% agar medium by gentle pipetting and were plated on 2% agar medium supplemented with 10 μg ml^−1 Zeocin.

[2] = test system: C. reinhardtii (Nit1-305,cw-15); experiment: PCR screening of transformant colonies (Zeocin specific primers); format: cell-based, Chlamydomonas reinhardtii; conditions: pSP124S linearized with KpnI, no pretreatment; 155 bp expected product (FIG. 11 panel A)
Procedure: Transformed colonies were picked from the selection plates and inoculated into liquid selection media to multiply cells to be used for genomic DNA isolation. Genomic DNA from 1×10^5 cells of untransformed algae and the transformants were isolated using DNeasy™ Blood & Tissue Kit (QIAGEN®). ReadyMix™ Taq PCR Reaction Mix with MgCl2 (Sigma, Canada) was used to prepare 20 μl PCR reactions. Thermal cycling conditions were initial denaturation at 95° C. for 5 minutes and 40 cycles of 95° C. for 30 s, 65° C. for 30 s and 72° C. for 1.5 min. A final primer extension cycle was performed at 72° C. for 10 min.

[3] = test system: linearized plasmid DNA; experiment: Gel mobility shift assay of peptide plasmid DNA complex formation; conditions: 200 ng linearized plasmid DNA, 1% agarose gel
Procedure: Non-covalent attachment was tested using a gel mobility shift assay. The gel mobility shift assay was used to determine the minimum peptide concentration needed bind to plasmid DNA and cause it to shift during electrophoresis. Based on a peptide-DNA charge ratio calculation increasing concentrations of peptide were added to 200 ng of linearized plasmid DNA until the charge of the DNA was neutralized by the peptide causing a mobility shift in the DNA during electrophoresis in a 1% agarose gel.

[4] = pSP124S linearized with EcoRI, 0.5 mm bead disruption, Zeocin 10 μg/ml (FIG. 9)
[5] = pSP124S linearized with KpnI, 0.5 mm bead disruption, Zeocin 10 μg/ml (FIG. 8)

Substance | transformation rate compared with the other three peptides [1] | transformed colonies on selection plate [1] | PCR product with Zeocin specific primers in transformant colonies [2] | amount of peptide at which the shift occurred [3] | transformed colonies on selection plate [1, 4] | transformed colonies on selection plate [1, 5]
Transportan [ATT1] | higher | transformed | Lane 1 is positive | 339 ng | – | –
(Arg)9 (RRRRRRRRR) [ATT4] | – | – | – | 120 ng | transformed | transformed
Tat (48-57) (GRKKRRQRRR) [ATT2] | – | – | Lane 7 and 8 are positive | 80 ng | transformed | transformed
